Test results published in patent US7189701B1, “Tetrapeptide stimulating functional activity of neurons pharmacological agent based thereon and method of use thereof” (Sankt-Petersburgskaya Obschestvennaya Organizatsiya …, priority 1999, dated 2007).
Residues, ends and D or L forms follow the SMILES beside them.

What was measured:
white unbred male mice = experiment: Acute toxicity according to Kerber, single intramuscular administration; assay type: in vivo
Excerpt: Possible toxic effects of L-Ala-L-Glu-L-Asp-L-Pro (SEQ ID NO:1) tetrapeptide on the organism were studied in compliance with “The rules of preclinical estimation of safety of pharacological agents” (GLP) approved by the Department of State Control on Medicinal Agents and Medical Equipment of the Russian Federation of Dec. 29, 1997.
Objective of the study consisted in defining the tolerable toxic drug doses of the agent, estimating the stage and character of pathologic alterations in various organs and systems and in exploring the correlation between the toxic effects and the dose and duration of the drug application.
Acute toxicity of L-Ala-L-Glu-L-Asp-L-Pro (SEQ ID NO:1) tetrapeptide was determined according to Kerber. The study was performed on 66 white unbred male mice weighing 20 to 23 g kept in vivarium under standard regimen and fed upon standard rations. The animals were randomly divided into 6 equal groups by 11 mice in each. The animals were subject to a single intramuscular administration of 0.25 ml of the preparation in doses 1 mg/kg, 2 mg/kg, 3 mg/kg, 4 mg/kg, 5 mg/kg (several thousand times exceeding the therapeutic dose recommended for clinical trials). The control animals were administered the similar amount of saline.

cerebral cortex explants = experiment: Development of cerebral cortex explants (area index); assay type: cell-based, chicken embryos
Description: The experiments were carried out on 73 cerebral cortex fragments of 10–11 day old chicken embryos. Culture medium for the explants comprised 35% Eagle's solution, 25% foetal calf serum, 35% Henks' solution, 5% chicken embryonic extract. The medium was also added glucose (0.6%), insulin (0.5 IU/ml), penicillin (100 IU/ml), glutamine (2 mM). The cerebral cortex fragments were placed in the said medium and cultivated in Petri dishes in a thermostat at 36.7° C. for 2 days. L-Ala-L-Glu-L-Asp-L-Pro (SEQ ID NO:1) tetrapeptide and Cerebrolysin in concentrations 0.5, 1, 2, 20, 50, 100, 200, 400, 800, 1000 ng/ml were added into the experimental medium. Area index (AI) served as a criterion of biological activity and reflected the ratio of the entire explant area including the growth zone to the initial area of the cortex fragment. Student's t-criterion was applied to assess the significance of differences between the compared mean AI values. AI values were expressed percent. The control AI value was taken for 100%.
The growth zone of the control cortex explants included short axons, neuroglia cells migrating to the periphery and fibroblast-like cells.
Following series of experiments were performed to study the direct effect of the drugs on the cerebral cortex fragments.
Cerebrolysin in various concentrations was added to the culture medium of the cerebral cortex explants of the chicken embryos. […]

rats = experiment: Serotonin metabolism in the brain, model of electrically induced pain stress; assay type: in vivo
Description: In an hour the content of serotonin and its metabolite, 5-oxyindoleacetic acid, was measured in the parietal and posterior frontal regions of the brain.
Compensatory in character, the stimulation of serotonin metabolism diminishes the emotional perception of a pain impact, Natural “drawback” of the said mechanism consists in a quick transition to the state of decompensation. In control (untreated stress) the level of serotonin lowered, while that of 5-oxyindoleacetic acid rose (metabolic depletion phase).

[1] = test system: mice subject to ECS-induced amnestic impact; experiment: CRPA in mice subject to ECS-induced amnestic impact; assay type: in vivo; conditions: testing in 24 hours after the training
Description: Nootropic activity of L-Ala-L-Glu-L-Asp-L-Pro tetrapeptide was studied with the application of the conditioned reflex of passive avoidance (CRPA) in the intact animals and under the conditions of amnestic impacts (electroconvulsive treatment and ethanol intoxication).
The experiments were carried out on male mice weighing 20 to 24 g. For each animal the period of stay in dark and lighted chamber departments was registered during 2 min. before the training. […] The animals were trained by means of applying an electric pain stimulus in the preferred dark department, which lasted until the animal left this department. L-Ala-L-Glu-L-Asp-L-Pro tetrapeptide was introduced intraperitoneally 60 min. before the training. Testing was performed in 2 and 24 hours after the training. The period the animal stayed in the dark and lighted chamber departments and the number of animals not entering the dark department (“educated” animals) were recorded.
Electroconvulsive shock (ECS) was induced in the mice no later than in 10 sec. after the training via corneal electrodes by an electric impulse of 25 mA, which lasted for 0.5 sec. L-Ala-L-Glu-L-Asp-L-Pro tetrapeptide was introduced intraperitoneally 60 min. before the training. Testing was performed in 24 hours after the training.

[2] = test system: rats with severe craniocerebral compression; experiment: Acute severe craniocerebral injury model (CRAA learning, rotating pivot); assay type: in vivo
Description: Effect of L-Ala-L-Glu-L-Asp-L-Pro tetrapeptide on repair processes in the brain was assessed on the model of acute severe craniocerebral injury. Dynamics of the CNS functional restoration was defined by the tests on the coordination of movements and muscular tonus of the animals as well as on their abilities for learning and reproduction of conditioned reflex skills.
Severe craniocerebral compression in the rats was caused by a falling lead weight. In 1, 12, 48 and 96 hours the experimental animals were intramuscularly injected with L-Ala-L-Glu-L-Asp-L-Pro tetrapeptide. Animals in the 2nd group received Cerebrolysin.
Abilities for learning and skill reproduction were estimated by the test on the conditioned reflex of active avoidance (CRAA). To estimate the muscular tonus and coordination of movements the rats were rotated on a pivot at an increasing speed. Simultaneously, the retention time was measured.

[3] = 5 μg/kg, post-stress introduction, measured in an hour

C[C@H](N)C(=O)N[C@@H](CCC(=O)O)C(=O)N[C@@H](CC(=O)O)C(=O)N1CCC[C@H]1C(=O)O [L-Ala-L-Glu-L-Asp-L-Pro tetrapeptide, L-Alanyl-L-Glutamyl-L-Aspartyl-L-Proline] (H-AEDP-OH)
acute toxic reactions (white unbred male mice; doses several thousand times exceeding the therapeutic one): did not induce any acute toxic reactions | alterations in the general state, behaviour, motional activity, hair and skin integument, physiologic discharges (white unbred male mice; single intramuscular 1-5 mg/kg): No alterations | death of mice (white unbred male mice; single intramuscular 1-5 mg/kg, within 72 hours and in 14 days): none of the mice in either of the groups died | increase in the explant area index (AI) in comparison with control (cerebral cortex explants; 20 ng/ml): 40±7% | concentration stimulating cultivated cortical fragments (cerebral cortex explants; effective concentration): 20 ng/mL | content of 5-oxyindoleacetic acid in the brain (rats; [3]): diminished | content of serotonin in the brain (rats; [3]): increased | levels of serotonin and its metabolite (rats; intact animals): did not induce any changes | Total period of stay in the dark chamber in 24 hours [1]: 38.1 ± 4.4 | Trained animals (%) ([1]; i.p. 60 min. before the training): 25% | time of retention on the rotating pivot relative to control ([2]; 48 hours after the trauma): twice exceeded that in control | number of trainable animals relative to controls (CRAA) ([2]; 96 hours after trauma, intramuscular in 1, 12, 48 and 96 hours): twice as much as that in the controls | indices of learning relative to control ([2]; in 30 days): higher than those in control
